Experiments:
Format in all cases: in vivo
weedy Glycine max = experiment: Greenhouse post-emergence herbicidal efficacy on weedy Glycine max
Method: (§1) Evaluation of Post-Emergence Herbicidal Activity of Combinations Under Field Conditions
(§2) Methodology: Greenhouse trials were carried out to evaluate the efficacy of the combination of L-glufosinate and the other herbicides on weeds such as Glycine max, Spermacoce verticilata, Eleusine indica, Brachiaria decumbens. The soil used was sandy clay loam—Sand: 68.0%; Silt: 8.0%; Clay: 24.0%. All treatments were conducted in 4 replications per treatment with a spray volume of […].
(§3) The expected efficacy of a combination of L-glufosinate and the other herbicides was calculated using the well-established Colby method. Any difference between the observed and “expected” efficacy could be attributed to synergy between the two compounds.
(§4) In the Colby method, the expected (or predicted) response of a combination of herbicides is calculated by taking the product of the observed response for each individual component of the combination when applied alone, divided by 100, and subtracting this value from the sum of the observed response for each component when applied alone. An unexpected enhancement in efficacy of the combination is then determined by comparing the observed response of the combination to the expected (or predicted) response as calculated from the observed response of each individual component alone. If the observed response of the combination is greater than the expected (or predicted) response, or stated conversely, if the difference between the observed and expected response is greater than zero, then the combination is said to be synergistic or unexpectedly effective (Colby, S. R., Weeds, 1967(15), p. 20-22). The Colby method requires only a single dose of each herbicide applied alone and the mixture of both doses. The formula used to calculate the expected efficacy (EE) which was compared with the observed efficacy (OE) to determine the efficacy of the present invention is explained hereinbelow:
(§5) The expected efficacy for a combination of two active ingredients is as follows:
(§6) The expected efficacy for a combination of three active ingredients is as follows:
(§7) Where, • A=Observed efficacy of active ingredient A at the same concentration as used in the mixture. • B=Observed efficacy of the active ingredient B at the same concentration as used in the mixture. • C=Observed efficacy of the active ingredient C at the same concentration as used in the mixture.

Brachiaria decumbens = experiment: Greenhouse post-emergence herbicidal efficacy on Brachiaria decumbens
Method: as §1, §2, §3, §4, §5, §6, §7

Eleusine indica = experiment: Greenhouse post-emergence herbicidal efficacy on Eleusine indica
Method: as §1, §2, §3, §4, §5, §6, §7

Spermacoce latifolia = experiment: Greenhouse post-emergence herbicidal efficacy on Spermacoce latifolia; conditions: L-glufosinate 150, imazethapyr 75, carfentrazone 7.5 g a.i./h
Method: as §1, §2, §3, §4, §5, §6, §7

Borreria verticillata = experiment: Greenhouse post-emergence herbicidal efficacy on Borreria verticillata; conditions: L-glufosinate 150, imazapic and imazapyr 31.5 + 10.5 g a.i./h
Method: as §1, §2, §3, §4, §5, §6, §7

Amaranthus viridus = experiment: Greenhouse post-emergence herbicidal efficacy on Amaranthus viridus; conditions: Table 11, 3 DAA, L-glufosinate 150, imazapic and imazapyr 31.5 + 10.5 g a.i./h
Method: as §1, §2, §3
In the Colby method, the expected (or predicted) response of a combination of herbicides is calculated by taking the product of the observed response for each individual component of the combination when applied alone, divided by 100, and subtracting this value from the sum of the observed response for each component when applied alone. An unexpected enhancement in efficacy of the combination is then determined by comparing the observed response of the combination to the expected (or predicted) response as calculated from the observed response of each individual component alone. […]

[1] = Table 7, 7 DAA, L-glufosinate 150, saflufenacil 30, triclopyr 228 g a.i./h
[2] = Table 8, 7 DAA (head; title says 3 days), L-glufosinate 150, saflufenacil 30, triclopyr 228 g a.i./h
[3] = Table 9, 21 DAA, L-glufosinate 150, saflufenacil 30, 2,4 D 228 g a.i./h
[4] = Table 9, 28 DAA, L-glufosinate 150, saflufenacil 30, 2,4 D 228 g a.i./h
[5] = Table 9, 35 DAA, L-glufosinate 150, saflufenacil 30, 2,4 D 228 g a.i./h
[6] = Table 3, 14 DAA, L-glufosinate 150, imazethapyr 75, carfentrazone 7.5 g a.i./h
[7] = Table 3, 21 DAA, L-glufosinate 150, imazethapyr 75, carfentrazone 7.5 g a.i./h
[8] = Table 3, 28 DAA, L-glufosinate 150, imazethapyr 75, carfentrazone 7.5 g a.i./h
[9] = Table 3, 35 DAA, L-glufosinate 150, imazethapyr 75, carfentrazone 7.5 g a.i./h
[10] = Table 4, 3 DAA, L-glufosinate 150, imazethapyr 75, carfentrazone 7.5 g a.i./h
[11] = Table 4, 7 DAA, L-glufosinate 150, imazethapyr 75, carfentrazone 7.5 g a.i./h
[12] = Table 4, 14 DAA, L-glufosinate 150, imazethapyr 75, carfentrazone 7.5 g a.i./h
[13] = Table 4, 21 DAA, L-glufosinate 150, imazethapyr 75, carfentrazone 7.5 g a.i./h
[14] = Table 4, 28 DAA, L-glufosinate 150, imazethapyr 75, carfentrazone 7.5 g a.i./h
[15] = Table 4, 35 DAA, L-glufosinate 150, imazethapyr 75, carfentrazone 7.5 g a.i./h
[16] = Table 6, 7 DAA, L-glufosinate 150, imazethapyr 75, carfentrazone 7.5 g a.i./h
[17] = Table 6, 14 DAA, L-glufosinate 150, imazethapyr 75, carfentrazone 7.5 g a.i./h
[18] = Table 6, 21 DAA, L-glufosinate 150, imazethapyr 75, carfentrazone 7.5 g a.i./h
[19] = Table 6, 28 DAA, L-glufosinate 150, imazethapyr 75, carfentrazone 7.5 g a.i./h
[20] = Table 6, 35 DAA, L-glufosinate 150, imazethapyr 75, carfentrazone 7.5 g a.i./h

SMILES | Control % (weedy Glycine max; [1]) [%] | Control % (Brachiaria decumbens; [2]) [%] | Control % (weedy Glycine max; [3]) [%] | Control % (weedy Glycine max; [4]) [%] | Control % (weedy Glycine max; [5]) [%] | Control % (weedy Glycine max; [6]) [%] | Control % (weedy Glycine max; [7]) [%] | Control % (weedy Glycine max; [8]) [%] | Control % (weedy Glycine max; [9]) [%] | Control % (Eleusine indica; [10]) [%] | Control % (Eleusine indica; [11]) [%] | Control % (Eleusine indica; [12]) [%] | Control % (Eleusine indica; [13]) [%] | Control % (Eleusine indica; [14]) [%] | Control % (Eleusine indica; [15]) [%] | Control % (Spermacoce latifolia; Table 5, 7 DAA) [%] | Control % (Spermacoce latifolia; Table 5, 14 DAA) [%] | Control % (Spermacoce latifolia; Table 5, 21 DAA) [%] | Control % (Spermacoce latifolia; Table 5, 28 DAA) [%] | Control % (Spermacoce latifolia; Table 5, 35 DAA) [%] | further results
O=C(O)COc1nc(Cl)c(Cl)cc1Cl [Triclopyr, triclopyr] | 67.9 | 0 |  |  |  |  |  |  |  |  |  |  |  |  |  |  |  |  |  |  | 
O=C(O)COc1ccc(Cl)cc1Cl [2,4 D, 2,4-D] |  |  | 49.3 | 43.8 | 41 |  |  |  |  |  |  |  |  |  |  |  |  |  |  |  | 
Cc1nn(-c2cc(CC(Cl)C(=O)O)c(Cl)cc2F)c(=O)n1C(F)F (stereo not shown) [Carfentrazone, carfentrazone] |  |  |  |  |  | 50.3 | 44.3 | 44.3 | 39.3 | 8.7 | 14 | 12.3 | 11 | 7.7 | 0 | 58.3 | 64.3 | 64.3 | 64.3 | 63.3 | Control % (Brachiaria decumbens; [16]): 14%; Control % (Brachiaria decumbens; [17]): 16.7%; Control % (Brachiaria decumbens; [18]): 15%; Control % (Brachiaria decumbens; [19]): 5%; Control % (Brachiaria decumbens; [20]): 0%
CP(=O)(O)CC[C@H](N)C(=O)O [L-glufosinate, (S)-2-amino-4-(hydroxy(methyl)phosphonyl)butanoic acid] | 71.9 | 66.2 | 57.5 | 50.6 | 47.5 | 60 | 63.3 | 63.3 | 52.7 | 15 | 43.3 | 41.3 | 37.3 | 28.3 | 25.3 | 35 | 56.7 | 56.7 | 58.3 | 58.3 | Control % (Eleusine indica; Table 12, 3 DAA, L-glufosinate 150, imazapic and imazapyr 31.5 + 10.5 g a.i./h): 40%; Control % (Eleusine indica; Table 12, 7 DAA, L-glufosinate 150, imazapic and imazapyr 31.5 + 10.5 g a.i./h): 50%; Control % (Eleusine indica; Table 12, 14 DAA, L-glufosinate 150, imazapic and imazapyr 31.5 + 10.5 g a.i./h): 40%; Control % (Brachiaria decumbens; [16]): 46%; Control % (Brachiaria decumbens; [17]): 54.3%; Control % (Brachiaria decumbens; [18]): 53.3%; Control % (Brachiaria decumbens; [19]): 48.3%; Control % (Brachiaria decumbens; [20]): 42%; Control % (Borreria verticillata; Table 10, 3 DAA): 50%; Control % (Borreria verticillata; Table 10, 7 DAA): 80%; Control % (Borreria verticillata; Table 10, 14 DAA): 95%; Control % (Borreria verticillata; Table 10, 21 DAA): 90%; Control % (Borreria verticillata; Table 10, 28 DAA): 90%; Control % (Borreria verticillata; Table 10, 35 DAA): 85%; Control % (Amaranthus viridus): 50%
CC(C)N(C)S(=O)(=O)NC(=O)c1cc(-n2c(=O)cc(C(F)(F)F)n(C)c2=O)c(F)cc1Cl [Saflufenacil, saflufenacil] | 75.4 | 30 | 63.2 | 52.5 | 50.7 |  |  |  |  |  |  |  |  |  |  |  |  |  |  |  | 
CCc1cnc(C2=NC(C)(C(C)C)C(=O)N2)c(C(=O)O)c1 (stereo not shown) [Imazethapyr, imazethapyr] |  |  |  |  |  | 10 | 20.0 | 20.0 | 15.0 | 3.7 | 8.3 | 12 | 12.7 | 12.7 | 10 | 13.3 | 30 | 36.7 | 30 | 26.7 | Control % (Brachiaria decumbens; [16]): 10%; Control % (Brachiaria decumbens; [17]): 10%; Control % (Brachiaria decumbens; [18]): 15%; Control % (Brachiaria decumbens; [19]): 10%; Control % (Brachiaria decumbens; [20]): 5%

Source: US20250113826A1, “AN AGROCHEMICAL COMBINATION” (UPL LIMITED, priority 2021, published 2025)
